The test system of one test is β-receptors. The test is described as follows: Antiadrenergic properties: anti-β effect (reduction of epinephrine-accelerated heart-rate). In kind it is in vivo. The note with it: 10 mg/kg, intravenous, anaesthetized atropinized dog. The procedure:
(§1) The purpose of this test was to determine the capacity of the compounds under study to reduce epinephrine-increased blood-pressure (anti-α effect) and epinephrine-accelerated heart-rate (anti-β effect) in the dog previously anaesthetized with pentobarbital (30 mg/kg) and atropinized (1 mg/kg).
The percentage of reduction of the epinephrine-induced acceleration of heart-rate obtained by means of the compounds under study in comparison with the tachycardia previously measured (about 70 beats) was then registered.
(§2) In both cases, the results were expressed as follows: […]
(§3) + for a <50%-reduction of the increase in pressure or cardiac frequency
(§4) ++ for a ≥50-reduction of the increase in pressure or cardiac frequency
(§5) +++ for the almost complete supression of the increase in pressure or cardiac frequency.

The subject of a further test is α-receptors. The experiment in a line: Antiadrenergic properties: anti-α effect (reduction of epinephrine-increased blood-pressure). To be noted: intravenous; for Anti-α effect: 10 mg/kg, anaesthetized atropinized dog, epinephrine. In kind it is in vivo, dog. The procedure: as §1
After that, the dose of epinephrine so determined was administered followed by a dose, by intravenous route, of the compound to be studied. The percentage of reduction of hypertension produced by the compound under study in comparison with the hypertension previously obtained (about 100 mm.Hg) was then registered.
as §2, §3, §4, §5

In a further test the test system is anaesthetized dog. The test is described as follows: Reserpine-like properties (cardiac frequency and contractility of the myocardium). To be noted: Canis lupus familiaris, 1 mg/kg, intravenous, anaesthetized dog. The test is classed as in vivo. From the text:
C. Reserpine-like properties
the increase in cardiac frequency
the increase of (dP/dt) at its maximum, i.e. the increase of the maximum of the derivative of the left ventricular pressure in relation to time.
This derivative thus represented an index of contractility.

The record followed here is patent US4374841A, “Pyridoxine derivatives, and use in therapeutics” (S. A. Labaz N.V., priority 1980, dated 1983).

Where two headings read alike, the source gives them in different places.

For “4,5-Dihydroxymethyl-3-[2-hydroxy-3-(3,5-dimethyl-phenoxyethylamino)-propoxy]-2-methyl-pyridine”, the Anti-β effect result in the test on β-receptors was “++ (for a ≥50-reduction of the increase in pressure or cardiac frequency)”. For the same compound, in the test with α-receptors, the Anti-α effect result is “++ (for a ≥50-reduction of the increase in pressure or cardiac frequency)”.

In turn, `CNC(=O)OCc1cnc(C)c(OCC(O)CNCCOc2ccccc2)c1COC(=O)NC` (centres unmarked) [R, 4,5-Di-(N-methylcarbamoyloxymethyl)-3-(2-hydroxy-3-phenoxyethylamino-propoxy)-2-methyl-pyridine] gave an Anti-β effect in the test on β-receptors of 0. The Anti-α effect result with α-receptors is listed as “++ (for a ≥50-reduction of the increase in pressure or cardiac frequency)”.

“4,5-Dihydroxymethyl-3-{2-hydroxy-3-[(3-phenyl-1-methyl-1-propyl)-amino]-propoxy}-2-methyl-pyridine”: in the test on β-receptors, the Anti-β effect entry is given as “++ (for a ≥50-reduction of the increase in pressure or cardiac frequency)”. In the test on α-receptors, the Anti-α effect entry was “+++”.

In turn, `CNC(=O)OCc1cnc(C)c(OCC(O)CNCCOc2ccccc2C)c1COC(=O)NC` (centres unmarked) [Q, 4,5-Di-(N-methylcarbamoyloxymethyl)-3-[2-hydroxy-3-(2-methyl-phenoxyethylamino)-propoxy]-2-methyl-pyridine] registered an Anti-β effect with β-receptors of 0. In addition, the Anti-α effect entry in the test on α-receptors is listed as “+++”.

In turn, `Cc1ccc(OCCNCC(O)COc2c(C)ncc(CO)c2CO)cc1` (centres unmarked) [Compound M, 4,5-Dihydroxymethyl-3-[2-hydroxy-3-(4-methyl-phenoxyethylamino)-propoxy]-2-methyl-pyridine] registered an Anti-β effect in the test with β-receptors of 0. Also, the change in vivo at 1 mg/kg in the test on anaesthetized dog ((dP/dt) maximum, read-out: increase in the contractility of the myocardium) lay within 10 to 30%; in the test on anaesthetized dog (read-out: increase in cardiac frequency) it was 10 to 30%. In addition, the Anti-α effect entry in the test on α-receptors is “++ (for a ≥50-reduction of the increase in pressure or cardiac frequency)”.

For `COc1ccccc1OCCNCC(O)COc1c(C)ncc(CO)c1CO` (centres unmarked) [Compound U, 4,5-dihydroxymethyl-3-[2-hydroxy-3-(2-methoxy-phenoxyethylamino)-propoxy]-2-methyl-pyridine], the Anti-β effect result in the test on β-receptors is “++ (for a ≥50-reduction of the increase in pressure or cardiac frequency)”. Further, in the test on α-receptors, the Anti-α effect result is recorded as “+++”. For the same compound, in the test on α-receptors (lowest active dose, dog, dihydrochloride), the “prolonged α-antiadrenergic activity at a dose as low as” value came out at 0.5 mg/kg.

For the compound `Cc1ccc(OCCCNCC(O)COc2c(C)ncc(CO)c2CO)cc1C` (centres unmarked) [T, 4,5-Dihydroxymethyl-3-[2-hydroxy-3-(3,4-dimethyl-phenoxypropylamino)-propoxy]-2-methyl-pyridine], in the test on β-receptors, the Anti-β effect result was “++ (for a ≥50-reduction of the increase in pressure or cardiac frequency)”. Also, the Anti-α effect result in the test on α-receptors is “++ (for a ≥50-reduction of the increase in pressure or cardiac frequency)”.

`Cc1ncc(CO)c(CO)c1OCC(O)CNCCOc1ccc(Cl)cc1` (centres unmarked) [W, 4,5-Dihydroxymethyl-3-[2-hydroxy-3-(4-chloro-phenoxyethylamino)-propoxy]-2-methyl-pyridine]: the Anti-β effect entry in the test with β-receptors was “+ (for a <50%-reduction of the increase in pressure or cardiac frequency)”. For the same compound, in the test on α-receptors, the Anti-α effect result is “++ (for a ≥50-reduction of the increase in pressure or cardiac frequency)”.

For the compound `Cc1ncc(CO)c(CO)c1OCC(O)CNCCOc1ccccc1C(C)C` (centres unmarked) [S, 4,5-Dihydroxymethyl-3-[2-hydroxy-3-(2-isopropyl-phenoxyethylamino)-propoxy]-2-methyl-pyridine], the Anti-β effect result with β-receptors was “++ (for a ≥50-reduction of the increase in pressure or cardiac frequency)”. In addition, in the test with α-receptors, the Anti-α effect result is “+++”.

For “4,5-Dihydroxymethyl-3-(2-hydroxy-3-phenoxyethylamino-propoxy)-2-methyl-pyridine [C]”, the Anti-β effect result with β-receptors is “+ (for a <50%-reduction of the increase in pressure or cardiac frequency)”. For the same compound, the Anti-α effect result in the test with α-receptors is “+++”.
